Assays:
[1] = target: Class 1 histone deacetylase (Homo sapiens) (UniProt Q13547+O15379+Q92769+Q9BY41); experiment: Irreversible inhibition of class 1 HDAC in human A549 cells assessed as acetyl histone H3 level at 0.4 uM incubated for 5 hrs followed by drug wash-out for 24 hrs by western blot analysis relative to control; assay type: cell-based
[2] = Effect on HDAC6 protein expression in human A549 cells assessed as change in HDAC6 protein expression at 0.4 uM incubated for 5 hrs followed by drug wash-out and measured following drug wash-out by western blot analysis relative to control; assay type: functional
[3] = target: T1, Histone deacetylase 8 (Homo sapiens, UniProt Q9BY41); experiment: Inhibition of C-terminal His-tagged human full length recombinant HDAC8 (1 to 377 residues) expressed in Sf9 cells using Boc-Lys(trifluoroacety1)-AMC as substrate preincubated with enzyme for 1 hr followed by substrate addition and measured after 30 mins by fluorescence based analysis
T1 sequence (Q9BY41 whole entry): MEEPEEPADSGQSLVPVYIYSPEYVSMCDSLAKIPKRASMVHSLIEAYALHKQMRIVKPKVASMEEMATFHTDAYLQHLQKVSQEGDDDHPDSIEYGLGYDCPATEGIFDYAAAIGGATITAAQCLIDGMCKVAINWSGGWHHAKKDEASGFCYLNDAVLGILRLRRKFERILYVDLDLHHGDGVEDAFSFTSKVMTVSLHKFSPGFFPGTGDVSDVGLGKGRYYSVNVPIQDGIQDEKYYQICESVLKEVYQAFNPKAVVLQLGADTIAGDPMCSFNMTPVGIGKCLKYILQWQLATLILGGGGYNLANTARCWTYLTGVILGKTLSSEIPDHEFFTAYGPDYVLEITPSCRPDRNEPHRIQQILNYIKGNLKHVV

[4] = Half-life in mouse liver microsomes in presence of NADPH by LC-MS/MS analysis; assay type: ADME, Microsome
[5] = Half-life in human liver microsomes in presence of NADPH by LC-MS/MS analysis; assay type: ADME, Microsome

Chain of Class 1 histone deacetylase (Homo sapiens) (O15379 whole entry, looked up, one chain of several): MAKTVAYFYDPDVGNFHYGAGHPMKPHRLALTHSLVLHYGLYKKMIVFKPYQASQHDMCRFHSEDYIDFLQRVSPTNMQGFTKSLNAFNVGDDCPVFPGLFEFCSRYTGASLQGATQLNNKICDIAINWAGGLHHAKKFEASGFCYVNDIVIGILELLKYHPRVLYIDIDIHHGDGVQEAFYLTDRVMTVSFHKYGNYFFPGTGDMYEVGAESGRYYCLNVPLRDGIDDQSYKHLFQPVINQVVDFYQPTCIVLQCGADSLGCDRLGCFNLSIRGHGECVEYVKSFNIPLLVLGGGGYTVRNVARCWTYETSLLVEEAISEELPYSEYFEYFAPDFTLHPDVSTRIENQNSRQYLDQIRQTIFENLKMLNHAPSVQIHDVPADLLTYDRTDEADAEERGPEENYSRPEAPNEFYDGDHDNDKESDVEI
Chain of Class 1 histone deacetylase (Homo sapiens) (Q13547 whole entry, looked up, one chain of several): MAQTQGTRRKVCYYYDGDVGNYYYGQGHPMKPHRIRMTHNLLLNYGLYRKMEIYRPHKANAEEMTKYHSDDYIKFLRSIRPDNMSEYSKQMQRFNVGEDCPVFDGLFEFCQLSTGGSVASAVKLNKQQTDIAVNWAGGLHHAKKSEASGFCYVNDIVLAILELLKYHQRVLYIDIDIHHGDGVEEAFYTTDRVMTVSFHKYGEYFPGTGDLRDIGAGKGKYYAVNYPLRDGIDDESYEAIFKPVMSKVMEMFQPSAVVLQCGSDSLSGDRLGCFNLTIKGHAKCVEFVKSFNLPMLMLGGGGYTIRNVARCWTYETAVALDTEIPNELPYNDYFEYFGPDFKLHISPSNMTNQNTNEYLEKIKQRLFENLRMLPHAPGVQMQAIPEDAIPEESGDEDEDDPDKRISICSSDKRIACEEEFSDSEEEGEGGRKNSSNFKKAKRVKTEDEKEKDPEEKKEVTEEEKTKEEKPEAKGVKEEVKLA
Chain of Class 1 histone deacetylase (Homo sapiens) (Q92769 whole entry, looked up, one chain of several): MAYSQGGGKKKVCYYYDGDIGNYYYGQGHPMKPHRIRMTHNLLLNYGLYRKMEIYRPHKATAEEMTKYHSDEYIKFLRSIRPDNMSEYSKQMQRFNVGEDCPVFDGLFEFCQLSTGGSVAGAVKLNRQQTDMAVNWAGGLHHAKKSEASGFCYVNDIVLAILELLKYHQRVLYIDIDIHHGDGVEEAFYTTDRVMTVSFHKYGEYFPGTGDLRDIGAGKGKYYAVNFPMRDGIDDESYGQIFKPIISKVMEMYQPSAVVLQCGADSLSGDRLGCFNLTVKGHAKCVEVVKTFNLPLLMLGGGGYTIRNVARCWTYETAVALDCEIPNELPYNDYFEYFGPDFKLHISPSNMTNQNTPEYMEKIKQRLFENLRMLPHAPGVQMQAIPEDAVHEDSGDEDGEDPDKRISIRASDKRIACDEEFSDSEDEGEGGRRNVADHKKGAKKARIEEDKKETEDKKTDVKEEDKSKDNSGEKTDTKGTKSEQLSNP

With `O=C(NO)c1ccc(COc2no[n+]([O-])c2S(=O)(=O)c2ccccc2)cc1` the fold change (FC) [1] was 1.2, the “fold change (FC)” value [2] was 1 and the IC50 [3] was 2100 nM. The half-life [4] was 1.8 min and the half-life [5] was 5.4 min.

From ChEMBL document CHEMBL5346971, “Discovery of the First Irreversible HDAC6 Isoform Selective Inhibitor with Potent Anti-Multiple Myeloma Activity” (J Med Chem, 2023)
